Measurements reported in paper PMC12029836, “Phytotoxicity, Cytotoxicity, and Antimicrobial Activity of Triethanolammonium Amino Acids Salts” (Molecules, 2025).
Read-outs that look alike come from different tables or passages of the source.

Assays:
[1] = tested on: Lepidium sativum L. seeds; conditions: 24 h incubation, mean(±SD), n = 3
[2] = tested on: Lepidium sativum L. roots; conditions: 24 h incubation, mean(±SD), n = 3
[3] = 0.01% (w/w) compound in the medium
[4] = 0.03% (w/w) compound in the medium
[5] = 0.05% (w/w) compound in the medium
[6] = 0.10% (w/w) compound in the medium
[7] = 0.30% (w/w) compound in the medium
[8] = 0.50% (w/w) compound in the medium
[9] = 1.00% (w/w) compound in the medium
[10] = 2.00% (w/w) compound in the medium
[11] = 3.00% (w/w) compound in the medium
[12] = 4.00% (w/w) compound in the medium
[13] = 5.00% (w/w) compound in the medium

| Structure (SMILES) | Inhibition of the Lepidium sativum seeds germination (ISG, %) [1, 3] | Inhibition of the Lepidium sativum seeds germination (ISG, %) [1, 4] | Inhibition of the Lepidium sativum seeds germination (ISG, %) [1, 5] | Inhibition of the Lepidium sativum seeds germination (ISG, %) [1, 6] | Inhibition of the Lepidium sativum seeds germination (ISG, %) [1, 7] | Inhibition of the Lepidium sativum seeds germination (ISG, %) [1, 8] | Inhibition of the Lepidium sativum seeds germination (ISG, %) [1, 9] | Inhibition of the Lepidium sativum seeds germination (ISG, %) [1, 10] | Inhibition of the Lepidium sativum seeds germination (ISG, %) [1, 11] | Inhibition of the Lepidium sativum seeds germination (ISG, %) [1, 12] | Inhibition of the Lepidium sativum seeds germination (ISG, %) [1, 13] | Inhibition of the root growth in pregerminated Lepidium sativum seeds (IRG, %) [2, 3] | Inhibition of the root growth in pregerminated Lepidium sativum seeds (IRG, %) [2, 4] | Inhibition of the root growth in pregerminated Lepidium sativum seeds (IRG, %) [2, 5] | Inhibition of the root growth in pregerminated Lepidium sativum seeds (IRG, %) [2, 8] | Inhibition of the root growth in pregerminated Lepidium sativum seeds (IRG, %) [2, 9] | Inhibition of the root growth in pregerminated Lepidium sativum seeds (IRG, %) [2, 10] | Inhibition of the root growth in pregerminated Lepidium sativum seeds (IRG, %) [2, 11] | Inhibition of the root growth in pregerminated Lepidium sativum seeds (IRG, %) [2, 12] | Inhibition of the root growth in pregerminated Lepidium sativum seeds (IRG, %) [2, 13] | further results |
| --- | --- | --- | --- | --- | --- | --- | --- | --- | --- | --- | --- | --- | --- | --- | --- | --- | --- | --- | --- | --- | --- |
| N[C@@H](CC(=O)O)C(=O)O.OCCN(CCO)CCO.OCCN(CCO)CCO [[TEA]2[Asp]] | 1.8(±0.1) % | 3.6(±1.3) % | 7.3(±0.8) % | 9.1(±0.5) % | 12.7(±0.8) % | 16.4(±1.3) % | 18.2(±0.8) % | 19.1(±1.3) % | 20.0(±0.5) % | 30.9(±0.9) % | 50.9(±0.8) % | 7.7(±1.9) % | 8.6(±2.1) % | 11.6(±1.9) % | 36.6(±1.6) % | 40.7(±1.2) % | 65.4(±0.7) % | 76.7(±0.7) % | 82.2(±0.6) % | 86.2(±0.5) % | Inhibition of the root growth in pregerminated Lepidium sativum seeds (IRG, %) [2, 6]: 29.6(±2.0) %; Inhibition of the root growth in pregerminated Lepidium sativum seeds (IRG, %) [2, 7]: 32.6(±1.5) % |
| NC(CCC(=O)O)C(=O)O.OCCN(CCO)CCO.OCCN(CCO)CCO (centres unmarked) [[TEA]2[Glu]] | 0.0(±0.0) % | 0.0(±0.0) % | 0.0(±0.0) % | 3.7(±0.9) % | 5.6(±0.9) % | 7.4(±0.9) % | 14.8(±2.5) % | 22.2(±2.2) % | 29.6(±1.7) % | 37.0(±0.5) % | 63.0(±0.5) % | 10.0(±2.9% | 18.1(±2.7) % | 21.3(±2.7) % | 44.4(±2.2) % | 51.5(±2.1) % | 68.2(±1.3) % | 78.5(±0.6) % | 87.0(±0.4) % | 90.5(±0.7) % |  |
| NC(=O)C[C@H](N)C(=O)O.OCCN(CCO)CCO [[TEA][Asn]] | 5.6(±2.9) % | 6.5(±1.3) % | 7.4(±0.5) % | 9.3(±1.3) % | 12.0(±0.9) % | 14.8(±2.4) % | 20.4(±2.6) % | 33.3(±2.9) % | 46.3(±0.9) % | 67.6(±2.9) % | 88.9(±1.4) % | 4.5(±1.6) % | 11.6(±1.6) % | 16.0(±1.6) % | 42.7(±1.5) % | 58.9(±1.1) % | 76.9(±1.0) % | 81.5(±0.9) % | 85(±0.8) % | 88.2(±0.7) % | Inhibition of the root growth in pregerminated Lepidium sativum seeds (IRG, %) [2, 6]: 32.5(±1.7) %; Inhibition of the root growth in pregerminated Lepidium sativum seeds (IRG, %) [2, 7]: 34.9% |
| NC(=O)CCC(N)C(=O)O.OCCN(CCO)CCO (centres unmarked) [[TEA][Gln]] | 0.0(±0.0) % | 0.0(±0.0) % | 0.0(±0.0) % | 1.7(±2.2) % | 9.2(±1.3) % | 15.0(±0.5) % | 20.8(±2.6) % | 38.1(±2.1) % | 53.8(±2.5) % | 86.7(±1.3) % |  | 13.0(±2.0) % | 20.7(±1.8) % | 21.0(±2.2) % | 63.6(±1.3) % | 72.9(±0.9) % | 78.1(±1.0) % | 85.2(±0.9) % | 92.4(±0.5) % | 93.6(±0.5) % | Inhibition of the root growth in pregerminated Lepidium sativum seeds (IRG, %) [2, 6]: 26.9(±1.8) %; Inhibition of the root growth in pregerminated Lepidium sativum seeds (IRG, %) [2, 7]: 50.5% |
| NCC(=O)O.OCCN(CCO)CCO [[TEA][Gly]] | 0.0(±0.5) % | 0.0(±0.5) % | 1.7 (±1.2) % | 3.4 (±1.3) % | 6.9 (±0.8) % | 13.8(±2.6) % | 20.7(±3.1) % |  | 63.8% | 81.0(±1.7) % | 87.9(±0.9) % | 8.7% | 16.2(±1.8) % | 20.9(±2.0) % | 62.3(±1.3) % | 75.7(±0.7) % | 80.6(±0.6) % | 93.3(±0.5) % | 96.2(±0.4) % | 95.9(±0.4) % | Inhibition of the root growth in pregerminated Lepidium sativum seeds (IRG, %) [2, 6]: 20.6(±1.7) %; Inhibition of the root growth in pregerminated Lepidium sativum seeds (IRG, %) [2, 7]: 49.3(±1.3) % |
| CCC(C)C(N)C(=O)O.OCCN(CCO)CCO [[TEA][Ile]] | 0.0(±1.9) % | 0.0(±1.4) % | 0.0(±0.8) % | 0.0(±0.5) % | 3.6(±2.2) % | 5.4(±0.5) % | 17.9(±2.6) % | 23.2(±0.9) % | 26.8(±0,9) % | 39.3(±2.1) % | 80.4(±1.3) % | 2.9(±1.7) % | 27.8(±1.4) % | 31.4(±1.9) % | 36.9(±1.6) % | 56.9(±1.2) % | 70.9(±1.0) % | 72.5(±0.7) % | 77.5(±0.6) % | 80.4(±0.3) % | Inhibition of the root growth in pregerminated Lepidium sativum seeds (IRG, %) [2, 6]: 35.1(±1.5) %; Inhibition of the root growth in pregerminated Lepidium sativum seeds (IRG, %) [2, 7]: 34.6(±1.6) % |
